In patent publication US20060159735A1, “Method of reclaiming drug compound from liposomal drug manufacturing stream” (priority 2005, published 2006):

Legend:
Type in all cases: physicochemical
[1] = Partitioning of HSPC and cholesterol dispersions into chloroform; settings: 1:3 CHCl3:Aq volume ratio, HPLC; for extraction efficiency with chloroform: 0.1 mg/mL cholesterol:HSPC dispersion
Method: Concentrations of 1 mg/mL and 0.1 mg/mL of the 2:1 molar ratio HSPC:cholesterol spray dried mix dispersions were produced. Then the mixes were extracted with chloroform and varying chloroform:aqueous ratios at 1:3, 1:1 and 3:1. […] The other ratios produced milky emulsions in the aqueous phase.
HSPC consists of two main components: PSPC (1-palmitoyl-2-stearoyl-sn-glyero-3-phosphocholine) and DSPC (1,2-distearoyl-sn-glycero-3-phosphocholine). […] For the 0.1 mg/mL dispersion the extraction was less efficient; being ˜95% for cholesterol, ˜63% for PSPC and ˜24% for DSPC.

[2] = Partitioning of HSPC and cholesterol into chloroform in the presence of OSI-7904; settings: for retained in the aqueous phase: first extraction, 17 mg/mL OSI-7904 with ~0.5 mg/mL HSPC:cholesterol mix, 1:3 CHCl3:Aq, shaking 1 hour; for amounts retained in the aqueous phase: second extraction with chloroform of the aqueous phase
Method: A 17 mg/mL OSI-7904 solution containing ˜0.5 mg/mL, 2:1 molar ratio HSPC:cholesterol mix was produced and extracted by mechanical shaking for 1 hour with chloroform at the 1:3 (CHCl3:Aq) ratio. Before partition the aqueous phase was hazy and yellow in color. After extraction the upper aqueous phase was clear and yellow.
The upper aqueous phase was analyzed for HSPC, cholesterol and OSI-7904. Approximately 94% of OSI-7904 was retained in the aqueous phase and approximately 2%, 8% and 8% retained of cholesterol, DSPC and PSPC respectively. This aqueous phase was extracted a second time with chloroform. The amounts retained in the aqueous phase for PSPC, DSPC and cholesterol were approximately 65%, 100% and 67% respectively for this second extraction.

[3] = Potentiometric titration of OSI-7904 (Sirius Glpka autotitrator), with and without chloroform; solubility
Text: The ability of OSI-7904 to partition into chloroform as a function of pH was studied using a Sirius Glpka autotitrator. Attempts were first made to determine the pKas of the OSI-7904 drug substance using the Sirius autotitrator, since these values are required when determining the partition coefficients by potentiometric titration. […] It is usual practice, with a compound of low solubility, to titrate the compound with various amounts of cosolvent present to determine apparent pKas and then perform an extrapolation back to 100% aqueous to calculate the true thermodynamic pKa. However, even with cosolvent (methanol) present, precipitation of the drug was still a problem and reproducible data sets were not obtained. […] As a result, extraction of OSI-7904 with chloroform is not a practical proposition since large volumes of chloroform would be required to solubilise the drug.
In this case, the Bjerrum plot is for the titration of 10 mL of 0.33 mM OSI-7904 aqueous solution in the presence of 5 mL chloroform. Titration started at low pH. The sharp change in slope at pH˜4.5 and lack of symmetry in the curve is indicative of undissolved compound present which then dissolves as the pH is increased.

[4] = Chloroform extraction of OSI-7904 solution with trace (saturated solution) HSPC and cholesterol; settings: 1.2 mg/mL OSI-7904, trace HSPC and cholesterol; 1:3 CHCl3:Aq
Text: The work above had been carried out with dispersions of solid HSPC:cholesterol. It was thought that the actual permeate would only contain materials in free solution. A better model for this was considered to be saturating some water with the HSPC:cholesterol mix, filtering out the solid and working with this clarified solution. A saturated solution prepared in this way typically contained only traces of cholesterol and HSPC. It was noticed however that on one occasion when the dispersion of HSPC:cholesterol in water had been stirred continuously for approximately four days, the filtrate was opalescent and not clear and the levels of the HSPC and cholesterol were much higher. It was thought the most likely explanation for this was that initially multilamellar liposomes were formed and these were filtered out leaving only HSPC and cholesterol that are in free solution or in micelles. On extending mixing, the multilamellar liposomes are broken down to smaller particles and these are able to pass through the pores of the filter.
A 1.2 mg/mL solution of OSI-7904 was prepared containing trace levels of HSPC and cholesterol in solution (no solid present). This was extracted with chloroform in the 1:3 ratio (8.8 mL:26.5 mL, CHCl3:Aq) by manually shaking for 1 min. […] The aqueous phase was filtered through a 0.45 μm aperture filter and analyzed for OSI-7904, cholesterol and HSPC by HPLC. […]

extraction efficiency with chloroform [1] [%] | retained in the aqueous phase [2] | amounts retained in the aqueous phase [2] | solubility in aqueous media ([3]; at low pHs) | solubility in chloroform ([3]; even at low pH, titration in presence of chloroform) | solubility ([3]; with aqueous solution present during titration, organic solvent or mixture, from Bjerrum plot, titration of 10 mL 0.33 mM aqueous solution in presence of 5 mL chloroform) [µg/mL] | levels after extraction with chloroform ([1]; 1 mg/mL cholesterol:HSPC dispersion) | change in concentration in the aqueous phase after extraction with chloroform [4] | Compound
~24 | ~8% | ~100% | – | – | – | – | – | CCCCCCCCCCCCCCCCCC(=O)OC[C@H](COP(=O)([O-])OCC[N+](C)(C)C)OC(=O)CCCCCCCCCCCCCCCCC [DSPC, 1,2-distearoyl-sn-glycero-3-phosphocholine]
– | Approximately 94% | – | very insoluble | very low | < 400 | – | – | Cc1nc2ccc3ccc(CNc4ccc5c(c4)CN([C@@H](CCC(=O)O)C(=O)O)C5=O)cc3c2c(=O)[nH]1 [OSI-7904]
~63 | ~8% | approximately 65% | – | – | – | – | – | CCCCCCCCCCCCCCCCCC(=O)O[C@H](COC(=O)CCCCCCCCCCCCCCC)COP(=O)([O-])OCC[N+](C)(C)C [PSPC, 1-palmitoyl-2-stearoyl-sn-glyero-3-phosphocholine]
~95 | approximately 2% | ~67% | – | – | – | undetectable | no decrease | CC(C)CCC[C@@H](C)[C@H]1CC[C@H]2[C@@H]3CC=C4C[C@@H](O)CC[C@]4(C)[C@H]3CC[C@]12C [cholesterol]
